From patent US9650339B2, “Inhibitors of histone demethylases” (Gilead Sciences, Inc., priority 2013, dated 2017)

Legend:
Format in all cases: biochemical
KDM2B (FBXL10) = target: T1, KDM2B (FBXL10) (Homo sapiens, UniProt Q8NHM5); assay: Histone lysine demethylase AlphaLISA assay, KDM2B; conditions: read-out: KDM2B HDME Inhibition IC50
T1 sequence (Q8NHM5 1-650): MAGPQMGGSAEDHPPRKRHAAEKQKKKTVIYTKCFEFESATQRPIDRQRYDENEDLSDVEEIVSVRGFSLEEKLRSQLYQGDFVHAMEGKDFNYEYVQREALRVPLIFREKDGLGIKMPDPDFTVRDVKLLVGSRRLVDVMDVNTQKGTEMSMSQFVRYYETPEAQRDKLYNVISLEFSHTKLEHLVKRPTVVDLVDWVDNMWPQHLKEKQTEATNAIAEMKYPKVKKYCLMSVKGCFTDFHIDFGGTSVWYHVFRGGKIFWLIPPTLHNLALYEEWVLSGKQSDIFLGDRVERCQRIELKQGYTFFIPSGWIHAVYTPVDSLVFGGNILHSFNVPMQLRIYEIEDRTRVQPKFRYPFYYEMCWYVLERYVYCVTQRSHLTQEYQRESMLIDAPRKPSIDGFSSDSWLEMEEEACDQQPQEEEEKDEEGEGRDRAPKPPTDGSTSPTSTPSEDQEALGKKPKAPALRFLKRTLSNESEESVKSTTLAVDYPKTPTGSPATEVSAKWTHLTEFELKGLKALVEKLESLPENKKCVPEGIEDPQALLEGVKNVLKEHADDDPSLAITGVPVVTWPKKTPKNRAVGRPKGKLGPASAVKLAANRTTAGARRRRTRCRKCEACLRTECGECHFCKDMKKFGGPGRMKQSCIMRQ
Procedure, shortened: (§1)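 Biotinylated methylated H3 peptides (K9, K4, K27 or K36 marks) served as substrate, with 25 μM L-Asc and 10 μM α-KG. Enzymes were preincubated 10 min, then exposed to compounds (3% DMSO solutions) 10 min; product detected by AlphaLISA acceptor and streptavidin donor beads at room temperature in dark.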

KDM4A (JMJD2A) = target: T2, KDM4A (JMJD2A) (Homo sapiens, UniProt O75164); assay: Histone lysine demethylase AlphaLISA assay, KDM4A; conditions: read-out: KDM4A HDME Inhibition IC50
T2 construct: 1-350; purchased BPS Bioscience, US; host or cells: E. coli
T2 sequence (O75164 1-350): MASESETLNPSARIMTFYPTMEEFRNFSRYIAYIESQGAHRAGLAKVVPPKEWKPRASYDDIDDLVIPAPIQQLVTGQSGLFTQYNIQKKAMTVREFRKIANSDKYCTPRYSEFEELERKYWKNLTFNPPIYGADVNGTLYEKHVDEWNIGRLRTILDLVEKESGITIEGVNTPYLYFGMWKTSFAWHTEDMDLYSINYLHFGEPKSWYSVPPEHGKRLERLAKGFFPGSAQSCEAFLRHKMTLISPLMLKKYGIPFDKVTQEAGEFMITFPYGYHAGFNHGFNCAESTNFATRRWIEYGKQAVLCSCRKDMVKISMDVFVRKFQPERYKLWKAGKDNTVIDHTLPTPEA
Procedure, shortened: as §1

KDM4C (JMJD2C) = target: T3, KDM4C (JMJD2C) (Homo sapiens, UniProt Q9H3R0); assay: Histone lysine demethylase AlphaLISA assay, KDM4C; conditions: read-out: KDM4C HDME Inhibition IC50
T3 sequence (Q9H3R0 1-349): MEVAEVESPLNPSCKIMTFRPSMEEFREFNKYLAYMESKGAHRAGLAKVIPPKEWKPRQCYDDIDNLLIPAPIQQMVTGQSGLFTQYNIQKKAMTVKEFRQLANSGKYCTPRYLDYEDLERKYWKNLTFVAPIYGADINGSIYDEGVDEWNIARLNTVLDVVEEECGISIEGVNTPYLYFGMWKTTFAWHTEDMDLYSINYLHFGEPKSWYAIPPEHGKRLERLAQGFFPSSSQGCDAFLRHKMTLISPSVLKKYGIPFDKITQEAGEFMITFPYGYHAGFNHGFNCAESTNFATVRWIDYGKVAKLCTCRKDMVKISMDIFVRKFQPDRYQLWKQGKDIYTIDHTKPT
Procedure, shortened: as §1

Row | IC50 (KDM2B (FBXL10)) | IC50 (KDM4A (JMJD2A)) | IC50 (KDM4C (JMJD2C)) | Compound
1 | > 2500 nM | > 2500 nM | > 2500 nM | CCN(CC)CCCCNCc1cc(C=O)ccn1 [Compound 107, 2-({[4-(diethylamino)-butyl]amino}-methyl)pyridine-4-carbaldehyde]
2 | > 2500 nM | > 2500 nM | > 2500 nM | CN(C)CCCCNCc1cc(C=O)ccn1 [Compound 108, 2-({[4-(dimethylamino)-butyl]amino}methyl)-pyridine-4-carbaldehyde]
3 | > 2500 nM | 250 to 2500 nM | > 2500 nM | CN(C)CCNCc1cc(C=O)ccn1 [Compound 110, 2-({[2-(dimethylamino)-ethyl]amino}methyl)-pyridine-4-carbaldehyde]
4 | > 2500 nM | < 250 nM | 250 to 2500 nM | CCN(CC)CCCCNC(=O)CNCc1cc(C=O)ccn1 [Compound 112, N-[4-(diethylamino)-butyl]-2-{[(4-formylpyridin-2-yl)methyl]amino}-acetamide]
5 | > 2500 nM | > 2500 nM | 250 to 2500 nM | CN(C)CCCCCNCc1cc(C=O)ccn1 [Compound 114, 2-({[5-(dimethylamino)-pentyl]amino}methyl)-pyridine-4-carbaldehyde]
6 | > 2500 nM | 250 to 2500 nM | > 2500 nM | CCN(CC)CCCCN(Cc1cc(C=O)ccn1)C(=O)C(F)(F)F [Compound 115, N-[4-(diethylamino)butyl]-2,2,2-trifluoro-N-[(4-formylpyridin-2-yl)methyl]acetamide]
